Source: patent US20240208972A1, “LRRK2 INHIBITORS AND USES THEREOF” (NEURON23, INC., priority 2022, published 2024)

Legend:
[1] = biological target: T1, wt human LRRK2, catalytic site (Homo sapiens, UniProt Q5S007); test: TR-FRET LanthaScreen Tb Kinase Activity Assay, LRRK2 kinase inhibition; assay type: biochemical; conditions: 2 nM wt human LRRK2, 400 nM peptide, 38 μM ATP
T1 construct: wt human LRRK2, catalytic site, catalytic site (ThermoFisher/USA); purchased ThermoFisher
Summary of the method: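 TR-FRET LanthaScreen format: 2 nM wt human LRRK2 catalytic domain with 400 nM fluorescein-ERM (LRRKtide) and 38 μM ATP in Kinase Buffer A, after 15 min compound preincubation. Reaction 120 min at RT, then EDTA plus Tb-anti-pLRRKtide antibody for 60 min; emission ratios analysed per kit protocol.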

[2] = Brain penetration (Kp,uu) in CD-1 mice, with plasma and brain tissue binding by equilibrium dialysis; assay type: in vivo; conditions: mouse, brain and plasma (unbound), male CD-1 mice, single IV bolus 1 mg/kg
Procedure: The compounds disclosed herein were tested on CD-1 mice for brain penetration (Kp, uu) according to the following procedures.
Nine male CD-1 mice were administered TEST COMPOUND by single intravenous bolus administration at 1 mg/kg. The vehicle used for IV study was 5% DMSO, 5% solutol, 20% PEG300 and 70% water. The detailed dosing and sampling regimens are described in the following tables.
1.0 mg of test compound was accurately weighed into a glass vial, and slowly added with 104 μL of DMSO and vortexed for 1 min. Then 104 μL of solutol was added and vortexed for 1 min. Then 415 μL of PEG300 was added and vortexed for 1 min. Then 1000 μL of water was added and vortexed for 1 min. Finally, 451 μL of water was added and vortexed for 1 min to get a clear solution.
The body weights were in the range from 28.81 to 31.25 g for males on the first dosing day. All animals received a single intravenous bolus administration of TEST COMPOUND from the tail vein.
Each blood collection (about 0.06 mL per time point) was performed from saphenous vein of each animal into pre-chilled commercial K2-EDTA tubes as anti-coagulant and placed on wet ice until centrifugation.
Plasma samples were then prepared by centrifuging the blood samples at approximately 4° C., 3200×g for 10 minutes. All plasma samples were then quickly frozen over dry ice and kept at −60° C. or lower until LC-MS/MS analysis.
Brain tissue was homogenized using homogenizing buffer (15 mM PBS (pH7.4): MeOH=2:1) at the ratio of 1:9 (1 g tissue with 9 mL buffer, the dilution ratio is 10). The tissue homogenate was kept at −60° C. or lower until LC-MS/MS analysis.
The concentrations of TEST COMPOUND in plasma and brain were determined by using an LC-MS/MS method.
The plasma and brain concentration of TEST COMPOUND in study animals was subjected to a non-compartmental pharmacokinetic analysis by using the Phoenix WinNonlin software program (version 6.3 or above, Pharsight). The linear/log trapezoidal rule was applied in obtaining the PK parameters.
Individual plasma and brain concentration values that were below the lower limit of quantitation (LLOQ) were excluded from the PK parameter calculation. The nominal dose levels and nominal sampling times were used in the calculation of all pharmacokinetic parameters.
Mouse Kp, uu=(% free in mouse brain*concentration in mouse brain)/(% free in mouse plasma*concentration in mouse plasma)
The dialysis apparatus was assembled according to the manufacturer's instruction. Each Cell was filled with 120 μL of spiked plasma sample and dialyzed against equal volume of dialysis buffer (PBS). The assay was performed in duplicate. The dialysis plates were sealed and incubated in an incubator at 37° C. with 5% CO2 and rotated at 100 rpm for 6 hours. At the end of incubation, the seals were removed and 50 μL of samples from both buffer and plasma chambers were transferred to a 96-well plate.
All calculations were carried out using Microsoft Excel. The concentrations of test compound and control compound in the buffer and plasma chambers were determined from peak area ratios (PAR) of analyte to internal standard. Protein binding (% unbound and % bound) and recovery (% recovery) of test and control compounds was calculated as follows:
• 1. Thawing of the frozen brain (stored at −80° C.) • Frozen brain tissue was thawed at room temperature in a bath. Only brain tissue was used that was thawed no more than once. • 2. Preparation of brain tissue homogenate • Brain tissue homogenate was prepared by diluting one quantity (g) of the whole brain tissue with three volumes (mL) of buffer (PBS, pH 7.4) and homogenizing the mixture using a tissue homogenizer. Brain tissue homogenate was frozen at −80° C. for later use/comparison. • 3. Preparation of working solutions • The working solutions of test compound and the control compound propranolol were prepared in dimethyl sulfoxide (DMSO) at the concentration of 200 μM. […]

T1 sequence (Q5S007 1879-2138 limits assumed): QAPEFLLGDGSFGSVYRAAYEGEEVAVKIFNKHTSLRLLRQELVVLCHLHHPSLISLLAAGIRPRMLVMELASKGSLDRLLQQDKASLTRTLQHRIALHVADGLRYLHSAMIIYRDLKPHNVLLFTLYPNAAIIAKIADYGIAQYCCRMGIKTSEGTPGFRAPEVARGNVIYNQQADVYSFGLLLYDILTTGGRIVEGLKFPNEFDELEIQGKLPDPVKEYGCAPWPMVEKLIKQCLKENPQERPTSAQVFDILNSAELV

Row | Compound | IC50 [1] [nM] | Kp uu [2]
1 | Cc1n[nH]c2c1N=C(c1c(F)cccc1F)Nc1c(F)cc(N3CCOCC3)cc1-2 [Example 30, 4-(5-(2,6-difluorophenyl)-7-fluoro-3-methyl-1,6-dihydrobenzo[d]pyrazolo[3,4-f][1,3]diazepin-9-yl)morpholine] | < 2 | > 0.4
2 | Cc1n[nH]c2c1N=C(c1c(F)cccc1F)Nc1c-2cc(N2CCN(CC(F)(F)F)CC2)nc1C [Example 23, 5-(2,6-difluorophenyl)-3,7-dimethyl-9-(4-(2,2,2-trifluoroethyl)piperazin-1-yl)-1,6-dihydropyrazolo[4,3-d]pyrido[4,3-f][1,3]diazepine] | < 2 | > 0.4
3 | Fc1cccc(F)c1C1=Nc2c(C(F)F)n[nH]c2-c2cc(N3CCOCC3)ncc2N1 [Example 10, 4-[5-(difluoromethyl)-8-(2,6-difluorophenyl)-3,4,7,9,12-pentazatricyclo[8.4.0.02,6]tetradeca-1(10),2(6),4,7,11,13-hexaen-13-yl]morpholine] | < 2 | < 0.2
4 | Cn1nccc1-c1cc2c(cn1)NC(c1c(F)cccc1F)=Nc1c(Cl)n[nH]c1-2 [Example 59, 3-chloro-5-(2,6-difluorophenyl)-9-(1-methyl-1H-pyrazol-5-yl)-1,6-dihydropyrazolo[4,3-d]pyrido[4,3-f][1,3]diazepine] | < 2 | < 0.2
5 | Cc1n[nH]c2c1N=C(c1c(F)cccc1F)Nc1ccc(N3CCN(CCF)CC3)cc1-2 [Example 25, 5-(2,6-difluorophenyl)-9-[4-(2-fluoroethyl)piperazin-1-yl]-3-methyl-1,6-dihydropyrazolo[4,3-d][1,3]benzodiazepine] | < 2 | 0.2 to 0.4
6 | Cc1n[nH]c2c1N=C(c1c(F)cccc1F)Nc1c-2cc(N2CCN(CC(C)F)CC2)nc1C (racemic) [Example 20, 8-(2,6-difluorophenyl)-13-[4-(2-fluoropropyl)piperazin-1-yl]-5,11-dimethyl-3,4,7,9,12-pentazatricyclo[8.4.0.02,6]tetradeca-1(10),2(6),4,7,11,13-hexaene] | < 2 | 0.2 to 0.4
7 | CCc1n[nH]c2c1N=C(c1c(F)cccc1F)Nc1cnc(N3CCOCC3)cc1-2 [Example 31, 4-[8-(2,6-difluorophenyl)-5-ethyl-3,4,7,9,12-pentazatricyclo[8.4.0.02,6]tetradeca-1(10),2(6),4,7,11,13-hexaen-13-yl]morpholine] | 2 to 100 | 0.2 to 0.4
8 | Cc1n[nH]c2c1N=C(c1c(F)cccc1F)Nc1c-2cc(N2CCN(CC(F)F)CC2)nc1C [Example 19, 13-[4-(2,2-difluoroethyl)piperazin-1-yl]-8-(2,6-difluorophenyl)-5,11-dimethyl-3,4,7,9,12-pentazatricyclo[8.4.0.02,6]tetradeca-1(10),2(6),4,7,11,13-hexaene] | < 2 | > 0.4
